Holding throughout (assay type): cell-based
The test system of assay [1] is Escherichia coli. The assay is described as follows: agar plate system (Table II). The following applies: antibiotic medium 1, 72 hours at 30° C., read-out: Minimum Inhibitory Concentration. On the procedure:
(§1) The antimicrobial activities of Compounds A, B, C, D, E and F were also determined in an agar plate system. The compounds were added to melted and cooled (50° C.) agar in twofold concentration increments from 50 mcg per ml of agar to 1.56 mcg per ml of agar. Antibiotic medium 1 [CFR 436.102(1)] was used for testing of Pseudomonas aeruginosa, Staphylococcus aureus, Escherichia coli, and Streptococcus faecalis, but antibiotic medium 22 [CFR 436.102(22)] was used for testing of Candida albicans and Aspergillus niger. Organism suspensions containing 10^6 organisms per ml were used as stock suspensions. Sterile cotton swabs were dipped in the suspensions and then streaked across the solidified agar. The figures shown in Table II were the lowest concentrations at which no growth occurred after 72 hours at 30° C. These values were interpreted as the minimum inhibitory concentration (MIC).

Assay [2] deals with Aspergillus niger. The experiment in a line: agar plate system (Table II). The note with it: antibiotic medium 22, 72 hours at 30° C., read-out: Minimum Inhibitory Concentration. How it is done: as §1
The test system of assay [3] is Streptococcus faecalis. The assay is described as follows: agar plate system (Table II). The following applies: Enterococcus faecalis, antibiotic medium 1, 72 hours at 30° C., read-out: Minimum Inhibitory Concentration. How it is done:
as §1

Assay [4] has as its system Pseudomonas aeruginosa. The experiment in a line: agar plate system (Table II). The note with it: antibiotic medium 1, 72 hours at 30° C., read-out: Minimum Inhibitory Concentration. On the procedure: as §1
In assay [5] the test system is Staphylococcus aureus. The experiment in a line: agar plate system (Table II). The following applies: antibiotic medium 1, 72 hours at 30° C., read-out: Minimum Inhibitory Concentration. How it is done:
as §1

In assay [6] the test system is Candida albicans. The assay is described as follows: agar plate system (Table II). The following applies: antibiotic medium 22, 72 hours at 30° C., read-out: Minimum Inhibitory Concentration. On the procedure: as §1
Assay [7] has as its system Escherichia coli. The experiment in a line: conventional tube dilution test (Table I). The note with it: 48 h, antibiotic Number 3 medium, two days at 37° C., read-out: Minimum Inhibitory Concentration. On the procedure:
(§2) The in vitro antimicrobial activities of Compounds A, B and C, 5-bromo-2-ethyl-5-nitro-1,3-dioxane (Compound D), 5-bromo-5-nitro-2-n-propyl-1,3-dioxane (Compound E), and 5-bromo-2-isopropyl-5-nitro-1,3-dioxane (Compound F) were determined concurrently against Pseudomonas aeruginosa, Staphylococcus aureus, Escherichia coli, and Streptococcus faecalis in a conventional tube dilution test. The medium used was antibiotic Number 3 [CFR 436.102(3)] and the concentration of organisms was 10^4 organisms per ml of medium, with each tube being inoculated with 0.1 ml of inoculum. The figures shown in Table I are the lowest concentrations in mcg of active compound/ml of medium where no growth occurred in the medium after two days' incubation at 37° C.

In assay [8] the test system is Streptococcus faecalis. The assay is described as follows: conventional tube dilution test (Table I). The following applies: Enterococcus faecalis, 48 h, antibiotic Number 3 medium, two days at 37° C., read-out: Minimum Inhibitory Concentration. On the procedure: as §2
Assay [9] deals with Pseudomonas aeruginosa. The experiment in a line: conventional tube dilution test (Table I). The following applies: 48 h, antibiotic Number 3 medium, two days at 37° C., read-out: Minimum Inhibitory Concentration. How it is done:
as §2

For assay [10], the system named is Staphylococcus aureus. The assay is described as follows: conventional tube dilution test (Table I). The note with it: 48 h, antibiotic Number 3 medium, two days at 37° C., read-out: Minimum Inhibitory Concentration. How it is done:
as §2

The subject of assay [11] is Escherichia coli. The assay is described as follows: in vitro agar plate determination (Table VII). The note with it: agar plates at 10, 25 and 50 mcg. per ml., 24 hours, read-out: Minimum Inhibitory Concentration. On the procedure:
(§3) The antimicrobial activities of […] (Compound G) were determined concurrently with 5-bromo-2-methyl-5-nitro-1,3-dioxane (Compound C) and 5-bromo-5-nitro-1,3-dioxane (Compound B) against the same six organisms shown in Table II. […] The tests were in vitro determinations utilizing agar plates containing the active compound at 10, 25 and 50 mcg. per ml. of agar. The organisms, at concentrations of 10^6 organisms per milliliter, were streaked on the solidified agar. The plates were incubated for 24 hours and the presence or absence of growth noted. The minimum inhibitory concentration (MIC) was determined as the lowest active compound concentration in the agar where no growth occurred.

The subject of assay [12] is Aspergillus niger. The experiment in a line: in vitro agar plate determination (Table VII). The note with it: agar plates at 10, 25 and 50 mcg. per ml., 24 hours, read-out: Minimum Inhibitory Concentration. How it is done: as §3
In assay [13] the test system is Streptococcus faecalis. The experiment in a line: in vitro agar plate determination (Table VII). The note with it: Enterococcus faecalis; agar plates at 10, 25 and 50 mcg. per ml., 24 hours; read-out: Minimum Inhibitory Concentration. On the procedure:
as §3

Assay [14] concerns Pseudomonas aeruginosa. The assay is described as follows: in vitro agar plate determination (Table VII). The following applies: agar plates at 10, 25 and 50 mcg. per ml., 24 hours, read-out: Minimum Inhibitory Concentration. How it is done:
as §3

Assay [15] deals with Staphylococcus aureus. The experiment in a line: in vitro agar plate determination (Table VII). The note with it: agar plates at 10, 25 and 50 mcg. per ml., 24 hours, read-out: Minimum Inhibitory Concentration. How it is done: as §3
Assay [16] concerns Candida albicans. The assay is described as follows: in vitro agar plate determination (Table VII). The note with it: agar plates at 10, 25 and 50 mcg. per ml., 24 hours, read-out: Minimum Inhibitory Concentration. On the procedure:
as §3

The record followed here is patent US4025533A, “5-Bromo-5-nitro-2-alkylsubstituted-1,3-dioxane” (Eli Lilly and Company, priority 1976, dated 1977).

In brackets after ≈: the same amount, converted by molar mass.

As for `CCCC1OCC(Br)([N+](=O)[O-])CO1` (centres unmarked) [Compound E, 5-bromo-5-nitro-2-n-propyl-1,3-dioxane], the MIC in [1] is 12.5 µg/mL (≈ 49.2 µM); in assay [2], 6.25 µg/mL (≈ 24.6 µM); in assay [3], 12.5 µg/mL (≈ 49.2 µM); in assay [4] it was 25 µg/mL (≈ 98.4 µM); in [5] it was 12.5 µg/mL (≈ 49.2 µM); in assay [6] it was 3.1 µg/mL (≈ 12.2 µM). For the same compound, the MIC amounted to 25 µg/mL (≈ 98.4 µM) in assay [7], 25 µg/mL (≈ 98.4 µM) in assay [8], 50 µg/mL (≈ 197 µM) in [9] and 50 µg/mL (≈ 197 µM) in assay [10].

With `CC(C)C1OCC(Br)([N+](=O)[O-])CO1` (centres unmarked) [Compound F, 5-bromo-2-isopropyl-5-nitro-1,3-dioxane], the MIC was 12.5 µg/mL (≈ 49.2 µM) in assay [1]; 12.5 µg/mL (≈ 49.2 µM) in assay [2]; 25 µg/mL (≈ 98.4 µM) in [3]; 25 µg/mL (≈ 98.4 µM) in assay [4]; 12.5 µg/mL (≈ 49.2 µM) in assay [5]; 6.25 µg/mL (≈ 24.6 µM) in [6]. Also, the MIC stood at 25 µg/mL (≈ 98.4 µM) in assay [7], 25 µg/mL (≈ 98.4 µM) in [8], 50 µg/mL (≈ 197 µM) in assay [9] and 25 µg/mL (≈ 98.4 µM) in assay [10].

As to `CC1(C)OCC(Br)([N+](=O)[O-])CO1` [Compound G, 5-bromo-2,2-dimethyl-5-nitro-1,3-dioxane], the MIC in assay [11] amounted to 25 µg/mL (≈ 104 µM); in assay [12], 50 µg/mL (≈ 208 µM); in assay [13], 25 µg/mL (≈ 104 µM); in [14], 50 µg/mL (≈ 208 µM); in assay [15], 25 µg/mL (≈ 104 µM); in [16], 25 µg/mL (≈ 104 µM).
